According to PubChem BioAssay (NCI):
Values joined by “and” are separate entries in the source; they are usually repeats but may differ in a detail not shown here. Identical values can stand only once.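 Briefly, cells in 96-well plates were exposed to five compound concentrations for 48 h, and endpoints were estimated by linear interpolation. Here, GI50 denotes the concentration required for 50% inhibition of growth. TGI denotes the concentration required for complete inhibition of growth.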 Where a SMILES comes first, the peptide text is derived from it. [ ]: non-standard residue; d: D form. The star is where a group is joined. ξ: configuration not given here. NMeF = CN[C@@H](Cc1ccccc1)C(=O)O; NMeV = CN[C@H](C(=O)O)C(C)C; ξNMeN = CNC(CC(N)=O)C(=O)O; NMeA = CN[C@@H](C)C(=O)O; ξNMeV = CNC(C(=O)O)C(C)C; Boc = CC(C)(C)OC(=O)*

Key:
Experiment in all cases: growth of human tumour cells (NCI), 48 h
786-0 renal = system: 786-0 renal
A498 renal = system: A498 renal
A549 NSCLC = system: A549 NSCLC
ACHN renal = system: ACHN renal
CAKI-1 renal = system: CAKI-1 renal
CCRF-CEM leukemia = system: CCRF-CEM leukemia
COLO 205 colon = system: COLO 205 colon
DLD-1 colon = system: DLD-1 colon
DMS 114 small cell lung = system: DMS 114 small cell lung
DMS 273 small cell lung = system: DMS 273 small cell lung
HCC-2998 colon = system: HCC-2998 colon
HCT-116 colon = system: HCT-116 colon
HCT-15 colon = system: HCT-15 colon
HL-60(TB) leukemia = system: HL-60(TB) leukemia
HOP-62 NSCLC = system: HOP-62 NSCLC
HOP-92 NSCLC = system: HOP-92 NSCLC
HT29 colon = system: HT29 colon
IGROV1 ovarian = system: IGROV1 ovarian
K-562 leukemia = system: K-562 leukemia
KM12 colon = system: KM12 colon
LXFL 529 NSCLC = system: LXFL 529 NSCLC
M14 melanoma = system: M14 melanoma
M19-MEL melanoma = system: M19-MEL melanoma
MALME-3M melanoma = system: MALME-3M melanoma
MOLT-4 leukemia = system: MOLT-4 leukemia
NCI-H226 lung = system: NCI-H226 lung
NCI-H23 lung = system: NCI-H23 lung
NCI-H460 lung = system: NCI-H460 lung
NCI-H522 lung = system: NCI-H522 lung
OVCAR-3 ovarian = system: OVCAR-3 ovarian
OVCAR-4 ovarian = system: OVCAR-4 ovarian
OVCAR-8 ovarian = system: OVCAR-8 ovarian
RPMI-8226 leukemia = system: RPMI-8226 leukemia
RXF 393 renal = system: RXF 393 renal
SF-268 CNS = system: SF-268 CNS
SF-295 CNS = system: SF-295 CNS
SF-539 CNS = system: SF-539 CNS
SK-MEL-2 melanoma = system: SK-MEL-2 melanoma
SK-MEL-28 melanoma = system: SK-MEL-28 melanoma
SK-MEL-5 melanoma = system: SK-MEL-5 melanoma
SK-OV-3 ovarian = system: SK-OV-3 ovarian
SN12C renal = system: SN12C renal
SNB-19 CNS = system: SNB-19 CNS
SNB-75 CNS = system: SNB-75 CNS
SNB-78 CNS = system: SNB-78 CNS
SR leukemia = system: SR leukemia
SW-620 colon = system: SW-620 colon
TK-10 renal = system: TK-10 renal
U251 CNS = system: U251 CNS
UACC-257 melanoma = system: UACC-257 melanoma
UACC-62 melanoma = system: UACC-62 melanoma
UO-31 renal = system: UO-31 renal
XF 498 CNS = system: XF 498 CNS
BT-549 breast = system: BT-549 breast
DU-145 prostate = system: DU-145 prostate
EKVX NSCLC = system: EKVX NSCLC
KM20L2 colon = system: KM20L2 colon
LOX IMVI melanoma = system: LOX IMVI melanoma
MCF7 breast = system: MCF7 breast
MDA-MB-231 breast = system: MDA-MB-231 breast
MDA-MB-435 = system: MDA-MB-435
MDA-N = system: MDA-N
NCI/ADR-RES ovarian = system: NCI/ADR-RES ovarian
OVCAR-5 ovarian = system: OVCAR-5 ovarian
PC-3 prostate = system: PC-3 prostate
T-47D breast = system: T-47D breast

SMILES: COc1cc(C2Oc3cc(-c4oc5cc(O)cc(O)c5c(=O)c4O)ccc3OC2CO)ccc1O (centres undefined)
- TGI (786-0 renal): 72.8 µM
- TGI (A498 renal): > 49.3 µM
- TGI (A549 NSCLC): > 100 µM
- TGI (ACHN renal): 29.1 µM
- TGI (CAKI-1 renal): > 73.2 µM
- TGI (CCRF-CEM leukemia): > 100 µM
- TGI (COLO 205 colon): 75.3 µM
- TGI (DLD-1 colon): > 100 µM
- TGI (DMS 114 small cell lung): > 100 µM
- TGI (DMS 273 small cell lung): 31.2 µM
- TGI (HCC-2998 colon): > 78.9 µM
- TGI (HCT-116 colon): > 37.1 µM
- TGI (HCT-15 colon): > 100 µM
- TGI (HL-60(TB) leukemia): > 64.5 µM
- TGI (HOP-62 NSCLC): > 80.4 µM
- TGI (HOP-92 NSCLC): 52 µM
- TGI (HT29 colon): 69.7 µM
- TGI (IGROV1 ovarian): > 100 µM
- TGI (K-562 leukemia): > 100 µM
- TGI (KM12 colon): > 100 µM
- TGI (LXFL 529 NSCLC): > 100 µM
- TGI (M14 melanoma): > 70.5 µM
- TGI (M19-MEL melanoma): > 100 µM
- TGI (MALME-3M melanoma): 67 µM
- TGI (MOLT-4 leukemia): > 38.9 µM
- TGI (NCI-H226 lung): 82.1 µM
- TGI (NCI-H23 lung): 34.9 µM
- TGI (NCI-H460 lung): 12.7 µM
- TGI (NCI-H522 lung): > 30 µM
- TGI (OVCAR-3 ovarian): 54.8 µM
- TGI (OVCAR-4 ovarian): > 76.7 µM
- TGI (OVCAR-8 ovarian): > 100 µM
- TGI (RPMI-8226 leukemia): > 56.4 µM
- TGI (RXF 393 renal): 6.02 µM
- TGI (SF-268 CNS): > 57.2 µM
- TGI (SF-295 CNS): 64.8 µM
- TGI (SF-539 CNS): 34.3 µM
- TGI (SK-MEL-2 melanoma): 32.6 µM
- TGI (SK-MEL-28 melanoma): 62.3 µM
- TGI (SK-MEL-5 melanoma): 96.5 µM
- TGI (SK-OV-3 ovarian): > 95.5 µM
- TGI (SN12C renal): > 95.2 µM
- TGI (SNB-19 CNS): 81.7 µM
- TGI (SNB-75 CNS): > 60.7 µM
- TGI (SNB-78 CNS): > 100 µM
- TGI (SR leukemia): > 54.1 µM
- TGI (SW-620 colon): > 100 µM
- TGI (TK-10 renal): 58.3 µM
- TGI (U251 CNS): > 100 µM
- TGI (UACC-257 melanoma): > 100 µM
- TGI (UACC-62 melanoma): > 100 µM
- TGI (UO-31 renal): 6.81 µM
- TGI (XF 498 CNS): > 62.4 µM

SMILES: COC(=O)[C@H](C)N(C)C(=O)C(CC(N)=O)N(C)C(=O)[C@H](Cc1ccccc1)N(C)C(=O)[C@@H]1CCCN1C(=O)[C@H](C(C)C)N(C)C(=O)C(C(C)C)N(C)C(=O)[C@@H](NC(=O)OC(C)(C)C)C(C)C (some centres undefined) (Boc-V[ξNMeV][NMeV]P[NMeF][ξNMeN][NMeA]-OMe)
- GI50 (786-0 renal): > 75 µM
- TGI (786-0 renal): > 75 µM
- GI50 (A498 renal): 60.1 µM
- TGI (A498 renal): > 75 µM
- GI50 (A549 NSCLC): > 75 µM
- TGI (A549 NSCLC): > 75 µM
- GI50 (ACHN renal): > 75 µM
- TGI (ACHN renal): > 75 µM
- TGI (BT-549 breast): > 50 µM
- GI50 (CAKI-1 renal): > 75 µM
- TGI (CAKI-1 renal): > 75 µM
- GI50 (CCRF-CEM leukemia): 21.8 µM
- TGI (CCRF-CEM leukemia): 39.3 µM and > 75 µM
- GI50 (COLO 205 colon): > 75 µM
- TGI (COLO 205 colon): > 75 µM
- TGI (DLD-1 colon): > 75 µM
- TGI (DMS 114 small cell lung): 55.6 µM
- TGI (DMS 273 small cell lung): > 75 µM
- TGI (DU-145 prostate): > 50 µM
- GI50 (EKVX NSCLC): > 75 µM
- TGI (EKVX NSCLC): > 75 µM
- GI50 (HCC-2998 colon): 38.5 µM
- TGI (HCC-2998 colon): > 75 µM
- GI50 (HCT-116 colon): 28 µM
- TGI (HCT-116 colon): > 75 µM
- TGI (HCT-15 colon): > 75 µM
- GI50 (HL-60(TB) leukemia): 16.8 µM
- TGI (HL-60(TB) leukemia): 35.9 µM and 36.3 µM
- GI50 (HOP-62 NSCLC): > 75 µM
- TGI (HOP-62 NSCLC): > 75 µM
- GI50 (HOP-92 NSCLC): 17.2 µM
- TGI (HOP-92 NSCLC): 50 µM and 57.4 µM
- GI50 (HT29 colon): 27.2 µM
- TGI (HT29 colon): > 75 µM
- GI50 (IGROV1 ovarian): 36.7 µM
- TGI (IGROV1 ovarian): > 75 µM
- GI50 (K-562 leukemia): 33.1 µM
- TGI (K-562 leukemia): > 75 µM
- TGI (KM12 colon): 34 µM
- TGI (KM20L2 colon): > 75 µM
- GI50 (LOX IMVI melanoma): 26.7 µM
- TGI (LOX IMVI melanoma): > 75 µM
- TGI (LXFL 529 NSCLC): > 75 µM
- GI50 (M14 melanoma): 31.6 µM
- TGI (M14 melanoma): > 75 µM
- TGI (M19-MEL melanoma): 50.9 µM
- TGI (MALME-3M melanoma): > 75 µM
- TGI (MCF7 breast): > 50 µM
- TGI (MDA-MB-231 breast): > 50 µM
- TGI (MDA-MB-435): > 50 µM
- TGI (MDA-N): > 50 µM
- GI50 (MOLT-4 leukemia): 17.1 µM
- TGI (MOLT-4 leukemia): 50 µM and 51.1 µM
- TGI (NCI-H226 lung): > 75 µM
- GI50 (NCI-H23 lung): 35.6 µM
- TGI (NCI-H23 lung): > 75 µM
- GI50 (NCI-H460 lung): 25.4 µM
- TGI (NCI-H460 lung): > 75 µM
- GI50 (NCI-H522 lung): 34.8 µM
- TGI (NCI-H522 lung): > 75 µM
- TGI (NCI/ADR-RES ovarian): > 50 µM
- TGI (OVCAR-3 ovarian): > 75 µM
- TGI (OVCAR-4 ovarian): > 75 µM
- GI50 (OVCAR-5 ovarian): > 75 µM
- TGI (OVCAR-5 ovarian): > 75 µM
- TGI (OVCAR-8 ovarian): > 75 µM
- TGI (PC-3 prostate): > 50 µM
- TGI (RPMI-8226 leukemia): > 5 µM
- TGI (RXF 393 renal): 50 µM
- TGI (SF-268 CNS): > 75 µM
- GI50 (SF-295 CNS): > 75 µM
- TGI (SF-295 CNS): > 75 µM
- GI50 (SF-539 CNS): > 75 µM
- TGI (SF-539 CNS): > 75 µM
- GI50 (SK-MEL-2 melanoma): 18 µM
- TGI (SK-MEL-2 melanoma): > 50 µM and 48.8 µM
- GI50 (SK-MEL-28 melanoma): 31.4 µM
- TGI (SK-MEL-28 melanoma): > 75 µM
- GI50 (SK-MEL-5 melanoma): 35.2 µM
- TGI (SK-MEL-5 melanoma): > 75 µM
- GI50 (SK-OV-3 ovarian): > 75 µM
- TGI (SK-OV-3 ovarian): > 75 µM
- TGI (SN12C renal): > 75 µM
- GI50 (SNB-19 CNS): > 75 µM
- TGI (SNB-19 CNS): > 75 µM
- TGI (SNB-75 CNS): > 75 µM
- TGI (SNB-78 CNS): > 75 µM
- TGI (SR leukemia): 62.4 µM
- GI50 (SW-620 colon): 34.7 µM
- TGI (SW-620 colon): > 75 µM
- TGI (T-47D breast): > 50 µM
- GI50 (TK-10 renal): 59.2 µM
- TGI (TK-10 renal): > 75 µM
- GI50 (U251 CNS): 67.1 µM
- TGI (U251 CNS): > 75 µM
- TGI (UACC-257 melanoma): > 75 µM
- GI50 (UACC-62 melanoma): 25.8 µM
- TGI (UACC-62 melanoma): > 75 µM
- GI50 (UO-31 renal): 40.6 µM
- TGI (UO-31 renal): > 75 µM
- TGI (XF 498 CNS): > 75 µM
